# Experimental data taken from ChEMBL document CHEMBL4831500, “Discovery of first-in-class imidazothiazole-based potent and selective ErbB4 (HER4) kinase inhibitors” (Eur J Med Chem, 2021).
# Legend:
# MDA-MB-468 [1] = experiment: Antiproliferative activity against human MDA-MB-468 cells assessed as cell growth inhibition at 10 uM measured after 48 hrs by SRB assay relative to control; type: functional
# OVCAR-4 [2] = experiment: Antiproliferative activity against human OVCAR-4 cells assessed as cell growth inhibition at 10 uM measured after 48 hrs by SRB assay relative to control; type: functional
# CYP3A4 = CYP3A4 (Homo sapiens, UniProt P08684); experiment: Potency index, ratio of test compound IC50 to ketoconazole IC50 for inhibition of CYP3A4 (unknown origin) using BOMCC as a substrate incubated for 20 mins by fluorescence based analysis; type: ADME; conditions: probe BOMCC
# Sequence of CYP3A4 (P08684 whole entry): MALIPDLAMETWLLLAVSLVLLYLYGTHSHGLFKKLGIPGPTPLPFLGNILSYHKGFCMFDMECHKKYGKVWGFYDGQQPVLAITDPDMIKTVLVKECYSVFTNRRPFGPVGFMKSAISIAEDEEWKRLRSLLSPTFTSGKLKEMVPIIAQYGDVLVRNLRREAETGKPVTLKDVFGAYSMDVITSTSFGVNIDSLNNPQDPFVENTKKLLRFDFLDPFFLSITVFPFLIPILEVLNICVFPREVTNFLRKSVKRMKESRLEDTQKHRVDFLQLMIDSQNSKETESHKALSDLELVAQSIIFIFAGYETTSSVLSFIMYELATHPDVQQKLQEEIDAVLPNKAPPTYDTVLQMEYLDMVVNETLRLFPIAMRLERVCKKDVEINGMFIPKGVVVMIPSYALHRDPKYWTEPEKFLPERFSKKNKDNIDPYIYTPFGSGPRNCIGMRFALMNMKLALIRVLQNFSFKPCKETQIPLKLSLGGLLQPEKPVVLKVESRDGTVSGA
# MOLT-4 [3] = experiment: Antiproliferative activity against human MOLT-4 cells assessed as cell growth inhibition at 10 uM measured after 48 hrs by SRB assay relative to control; type: functional
# [4] = target: Fibroblast growth factor receptor 1 (Homo sapiens) (UniProt P11362); experiment: Inhibition of FGFR1 (unknown origin) at 10 uM incubated for 40 mins in presence of Mg/ATP mix by [gamma p33]-ATP based scintillation counting method relative to control
# NCI-H522 = experiment: Antiproliferative activity against human NCI-H522 cells assessed as cell growth inhibition at 10 uM measured after 48 hrs by SRB assay relative to control; type: functional
# SK-MEL-5 = experiment: Antiproliferative activity against human SK-MEL-5 cells assessed as cell growth inhibition at 10 uM measured after 48 hrs by SRB assay relative to control; type: functional
# [5] = target: T1, Receptor tyrosine-protein kinase erbB-4 (Homo sapiens, UniProt Q15303); experiment: Inhibition of ErbB4 (unknown origin) at 10 uM incubated for 40 mins in presence of Mg/ATP mix by [gamma p33]-ATP based scintillation counting method relative to control
# T1 sequence (Q15303 whole entry): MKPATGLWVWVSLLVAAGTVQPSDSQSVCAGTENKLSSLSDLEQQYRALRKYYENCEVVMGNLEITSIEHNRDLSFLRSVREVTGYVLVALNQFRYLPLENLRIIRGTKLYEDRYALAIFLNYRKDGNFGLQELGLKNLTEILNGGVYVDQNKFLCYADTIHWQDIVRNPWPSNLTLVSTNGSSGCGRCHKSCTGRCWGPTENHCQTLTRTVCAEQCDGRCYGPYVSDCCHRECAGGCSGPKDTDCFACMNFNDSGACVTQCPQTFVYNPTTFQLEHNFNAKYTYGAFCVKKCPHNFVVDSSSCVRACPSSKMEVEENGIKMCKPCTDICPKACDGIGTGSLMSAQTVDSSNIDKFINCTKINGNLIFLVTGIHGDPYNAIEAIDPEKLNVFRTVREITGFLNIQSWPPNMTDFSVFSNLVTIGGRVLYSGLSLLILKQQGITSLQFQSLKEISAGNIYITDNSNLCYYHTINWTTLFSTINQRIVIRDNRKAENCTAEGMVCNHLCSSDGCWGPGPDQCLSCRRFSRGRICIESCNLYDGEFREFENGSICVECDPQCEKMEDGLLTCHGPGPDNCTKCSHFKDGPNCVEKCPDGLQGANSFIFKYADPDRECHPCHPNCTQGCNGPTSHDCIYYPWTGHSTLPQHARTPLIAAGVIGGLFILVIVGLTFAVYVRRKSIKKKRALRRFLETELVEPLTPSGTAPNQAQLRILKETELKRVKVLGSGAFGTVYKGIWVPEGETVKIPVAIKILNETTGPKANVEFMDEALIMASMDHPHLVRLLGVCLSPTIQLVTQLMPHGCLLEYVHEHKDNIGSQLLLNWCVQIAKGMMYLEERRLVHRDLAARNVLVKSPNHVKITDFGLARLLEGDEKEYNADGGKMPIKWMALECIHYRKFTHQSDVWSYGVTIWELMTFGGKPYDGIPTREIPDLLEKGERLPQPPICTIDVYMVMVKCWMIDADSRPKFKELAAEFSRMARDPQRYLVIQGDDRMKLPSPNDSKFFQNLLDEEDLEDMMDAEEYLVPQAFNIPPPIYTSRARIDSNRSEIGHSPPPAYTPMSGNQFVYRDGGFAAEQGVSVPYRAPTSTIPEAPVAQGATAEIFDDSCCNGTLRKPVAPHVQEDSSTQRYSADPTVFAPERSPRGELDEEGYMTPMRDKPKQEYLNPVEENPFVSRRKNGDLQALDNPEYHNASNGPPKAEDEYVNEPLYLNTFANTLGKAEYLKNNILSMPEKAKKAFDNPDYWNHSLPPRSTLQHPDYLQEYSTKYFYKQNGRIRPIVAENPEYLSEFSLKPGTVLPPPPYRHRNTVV
# HCC 2998 [6] = experiment: Antiproliferative activity against human HCC 2998 cells assessed as cell growth inhibition at 10 uM measured after 48 hrs by SRB assay relative to control; type: functional
# [7] = target: T2, Epidermal growth factor receptor (Homo sapiens, UniProt P00533); experiment: Inhibition of EGFR (unknown origin) incubated for 40 mins in presence of Mg/ATP mix by [gamma p33]-ATP based scintillation counting method
# T2 sequence (P00533 whole entry): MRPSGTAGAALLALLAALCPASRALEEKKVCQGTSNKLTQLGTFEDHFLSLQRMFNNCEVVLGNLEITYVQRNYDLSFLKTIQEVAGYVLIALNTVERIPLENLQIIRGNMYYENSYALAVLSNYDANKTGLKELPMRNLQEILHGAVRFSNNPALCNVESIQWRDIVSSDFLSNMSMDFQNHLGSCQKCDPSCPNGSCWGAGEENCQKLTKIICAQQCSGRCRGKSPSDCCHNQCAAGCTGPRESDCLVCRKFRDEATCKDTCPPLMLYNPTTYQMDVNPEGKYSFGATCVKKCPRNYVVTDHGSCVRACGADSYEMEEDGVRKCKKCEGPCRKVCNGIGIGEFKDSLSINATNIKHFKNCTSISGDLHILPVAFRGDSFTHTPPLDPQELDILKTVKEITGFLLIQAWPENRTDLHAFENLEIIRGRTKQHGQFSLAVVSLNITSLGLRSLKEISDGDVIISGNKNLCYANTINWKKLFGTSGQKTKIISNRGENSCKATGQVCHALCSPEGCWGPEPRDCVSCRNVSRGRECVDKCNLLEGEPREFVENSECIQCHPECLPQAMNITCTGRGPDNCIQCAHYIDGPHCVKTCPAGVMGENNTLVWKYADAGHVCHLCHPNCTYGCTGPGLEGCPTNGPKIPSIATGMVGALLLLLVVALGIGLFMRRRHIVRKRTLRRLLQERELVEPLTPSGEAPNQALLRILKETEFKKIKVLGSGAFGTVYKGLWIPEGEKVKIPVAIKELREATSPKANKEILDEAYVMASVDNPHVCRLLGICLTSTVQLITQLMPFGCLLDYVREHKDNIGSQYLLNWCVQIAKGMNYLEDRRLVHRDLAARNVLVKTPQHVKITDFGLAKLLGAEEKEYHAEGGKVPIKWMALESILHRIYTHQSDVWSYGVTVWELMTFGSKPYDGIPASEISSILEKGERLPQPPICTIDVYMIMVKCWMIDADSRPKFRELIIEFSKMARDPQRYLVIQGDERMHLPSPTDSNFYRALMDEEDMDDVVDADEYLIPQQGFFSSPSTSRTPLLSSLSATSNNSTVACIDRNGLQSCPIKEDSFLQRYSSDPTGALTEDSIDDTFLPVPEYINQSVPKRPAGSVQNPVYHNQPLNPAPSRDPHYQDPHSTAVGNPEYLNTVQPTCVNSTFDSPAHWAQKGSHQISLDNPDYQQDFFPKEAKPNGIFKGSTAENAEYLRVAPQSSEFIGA
# HCC 2998 [8] = experiment: Antiproliferative activity against human HCC 2998 cells assessed as cell growth inhibition measured after 48 hrs by SRB assay; type: functional, cell-based; conditions: HCC 2998, 48 h
# [9] = target: T1, Receptor tyrosine-protein kinase erbB-4; experiment: Inhibition of ErbB4 in human T47D cells assessed as suppression of neuregulin 1-induced autophosphorylation incubated for 90 mins by sandwich ELISA; type: cell-based
# hERG (KCNH2) = hERG (KCNH2) (Homo sapiens, UniProt Q12809); experiment: Safety index, ratio of test compound IC50 to E-4031 IC50 for inhibition of human ERG incubated for 3 hrs by competitive fluorescence tracer binding based assay; conditions: read-out: Ratio IC50
# Sequence of hERG (KCNH2) (Q12809 whole entry): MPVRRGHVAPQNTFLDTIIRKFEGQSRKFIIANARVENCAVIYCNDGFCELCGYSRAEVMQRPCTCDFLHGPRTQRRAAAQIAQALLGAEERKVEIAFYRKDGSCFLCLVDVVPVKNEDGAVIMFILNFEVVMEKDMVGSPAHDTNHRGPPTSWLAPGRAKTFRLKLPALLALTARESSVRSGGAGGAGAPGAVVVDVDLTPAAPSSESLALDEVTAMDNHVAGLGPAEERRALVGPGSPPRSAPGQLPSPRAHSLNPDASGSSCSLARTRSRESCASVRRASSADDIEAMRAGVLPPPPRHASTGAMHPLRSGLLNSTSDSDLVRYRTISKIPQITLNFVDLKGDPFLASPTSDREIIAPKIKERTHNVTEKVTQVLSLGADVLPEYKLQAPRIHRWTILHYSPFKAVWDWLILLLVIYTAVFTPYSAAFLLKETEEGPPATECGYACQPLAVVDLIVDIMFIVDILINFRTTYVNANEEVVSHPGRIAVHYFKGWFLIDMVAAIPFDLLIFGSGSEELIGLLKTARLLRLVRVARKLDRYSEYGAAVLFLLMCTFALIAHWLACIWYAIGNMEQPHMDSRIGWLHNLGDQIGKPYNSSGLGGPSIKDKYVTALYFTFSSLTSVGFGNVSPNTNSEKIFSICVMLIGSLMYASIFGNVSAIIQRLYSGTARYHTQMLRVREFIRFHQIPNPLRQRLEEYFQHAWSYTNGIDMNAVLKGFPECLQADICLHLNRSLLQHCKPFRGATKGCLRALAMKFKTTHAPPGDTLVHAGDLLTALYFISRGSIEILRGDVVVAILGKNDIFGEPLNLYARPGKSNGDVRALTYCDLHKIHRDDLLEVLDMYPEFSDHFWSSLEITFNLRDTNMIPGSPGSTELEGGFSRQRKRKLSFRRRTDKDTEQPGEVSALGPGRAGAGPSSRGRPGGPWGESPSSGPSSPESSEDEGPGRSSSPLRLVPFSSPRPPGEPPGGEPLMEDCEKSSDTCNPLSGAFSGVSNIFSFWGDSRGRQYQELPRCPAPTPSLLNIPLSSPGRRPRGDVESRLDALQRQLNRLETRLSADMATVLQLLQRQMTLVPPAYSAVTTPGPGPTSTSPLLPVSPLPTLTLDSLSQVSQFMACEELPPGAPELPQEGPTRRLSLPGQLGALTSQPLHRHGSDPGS
# [10] = tested on: Panel NCI-60 (60 carcinoma cell lines); experiment: Growth inhibition of human panel NCI-60 (60 carcinoma cells) assessed as growth percent at 10 uM measured after 48 hrs by SRB assay relative to control; type: functional; conditions: read-out: Activity
# [11] = tested on: Serine/threonine-protein kinase B-raf (Homo sapiens), P15056 [V600E]; experiment: Inhibition of BRAF V600E mutant (unknown origin) at 10 uM incubated for 40 mins in presence of Mg/ATP mix by [gamma p33]-ATP based scintillation counting method relative to control
# OVCAR-4 [12] = experiment: Antiproliferative activity against human OVCAR-4 cells assessed as cell growth inhibition measured after 48 hrs by SRB assay; type: functional, cell-based; conditions: OVCAR-4, 48 h
# [13] = target: T1, Receptor tyrosine-protein kinase erbB-4; experiment: Potency index, ratio of staurosporine IC50 to test compound IC50 for inhibition of ErbB4 (unknown origin) at 10 uM incubated for 40 mins in presence of Mg/ATP mix by [gamma p33]-ATP based scintillation counting method
# [14] = target: T1, Receptor tyrosine-protein kinase erbB-4; experiment: Inhibition of ErbB4 expressed in human T47D cells at antiproliferative IC50 in presence of -neuregulin 1 incubated for 90 mins by sandwich ELISA relative to control; type: cell-based
# [15] = target: Receptor tyrosine-protein kinase erbB-2 (Homo sapiens) (UniProt P04626); experiment: Inhibition of ErbB2 (unknown origin) at 10 uM incubated for 40 mins in presence of Mg/ATP mix by [gamma p33]-ATP based scintillation counting method relative to control
# [16] = target: T2, Epidermal growth factor receptor; experiment: Inhibition of EGFR (unknown origin) at 10 uM incubated for 40 mins in presence of Mg/ATP mix by [gamma p33]-ATP based scintillation counting method relative to control
# [17] = target: RAF proto-oncogene serine/threonine-protein kinase (Homo sapiens, UniProt P04049); experiment: Inhibition of RAF1 (unknown origin) at 10 uM incubated for 40 mins in presence of Mg/ATP mix by [gamma p33]-ATP based scintillation counting method relative to control
# [18] = target: Tyrosine-protein kinase JAK3 (Homo sapiens) (UniProt P52333); experiment: Inhibition of JAK3 (unknown origin) at 10 uM incubated for 40 mins in presence of Mg/ATP mix by [gamma p33]-ATP based scintillation counting method relative to control
# MDA-MB-468 [19] = experiment: Antiproliferative activity against human MDA-MB-468 cells assessed as cell growth inhibition measured after 48 hrs by SRB assay; type: functional, cell-based; conditions: MDA-MB-468, 48 h
# MOLT-4 [20] = experiment: Antiproliferative activity against human MOLT-4 cells assessed as cell growth inhibition measured after 48 hrs by SRB assay; type: functional, cell-based; conditions: MOLT-4, 48 h
# U-251 = experiment: Antiproliferative activity against human U-251 cells assessed as cell growth inhibition at 10 uM measured after 48 hrs by SRB assay relative to control; type: functional
# [21] = target: T3, Mitogen-activated protein kinase 10 (Homo sapiens, UniProt P53779); experiment: Inhibition of JNK3 (unknown origin) incubated for 40 mins in presence of Mg/ATP mix by [gamma p33]-ATP based scintillation counting method
# T3 sequence (P53779 whole entry): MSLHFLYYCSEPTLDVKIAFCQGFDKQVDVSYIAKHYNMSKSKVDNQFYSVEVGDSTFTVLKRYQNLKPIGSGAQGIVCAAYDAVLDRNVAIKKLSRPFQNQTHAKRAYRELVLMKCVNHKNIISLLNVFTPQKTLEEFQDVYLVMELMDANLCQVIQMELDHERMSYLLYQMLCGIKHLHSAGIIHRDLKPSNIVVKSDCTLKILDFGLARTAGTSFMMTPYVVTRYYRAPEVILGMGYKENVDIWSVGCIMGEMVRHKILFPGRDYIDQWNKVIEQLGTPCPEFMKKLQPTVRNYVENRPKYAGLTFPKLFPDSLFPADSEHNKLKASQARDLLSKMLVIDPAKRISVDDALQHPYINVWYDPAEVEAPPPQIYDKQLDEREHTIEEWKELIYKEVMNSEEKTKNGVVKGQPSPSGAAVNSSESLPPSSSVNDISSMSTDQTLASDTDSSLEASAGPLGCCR
# [22] = target: Vascular endothelial growth factor receptor 2 (Homo sapiens, UniProt P35968); experiment: Inhibition of KDR (unknown origin) at 10 uM incubated for 40 mins in presence of Mg/ATP mix by [gamma p33]-ATP based scintillation counting method relative to control
# [23] = target: Serine/threonine-protein kinase B-raf (Homo sapiens, UniProt P15056, V600E); experiment: Inhibition of BRAF V600E mutant (unknown origin) incubated for 40 mins in presence of Mg/ATP mix by [gamma p33]-ATP based scintillation counting method
# Homo sapiens [24] = organism: Homo sapiens; experiment: Selectivity index, ratio of IC50 for inhibition of BRAF V600E mutant (unknown origin) to IC50 for inhibition of ErbB4 (unknown origin); conditions: dose 10.0 µM, time 40.0 min
# T47D = experiment: Antiproliferative activity against human T47D cells assessed as cell growth inhibition measured after 48 hrs by SRB assay; type: functional, cell-based
# [25] = target: T3, Mitogen-activated protein kinase 10; experiment: Inhibition of JNK3 (unknown origin) at 10 uM incubated for 40 mins in presence of Mg/ATP mix by [gamma p33]-ATP based scintillation counting method relative to control
# Homo sapiens [26] = organism: Homo sapiens; experiment: Selectivity ratio of IC50 for inhibition of EGFR (unknown origin) to IC50 for inhibition of ErbB4 (unknown origin); conditions: dose 10.0 µM, time 40.0 min
compound,measurement,setting,value
CS(=O)(=O)c1nccc(-c2c(-c3cccc(OCc4ccccc4)c3)nc3sccn23)n1,inhibition at 10 µM,MDA-MB-468 [1],165%
same,inhibition at 10 µM,OVCAR-4 [2],26.2%
same,selectivity ratio at 20 min,CYP3A4,7480
same,inhibition at 10 µM,MOLT-4 [3],73.5%
same,inhibition,[4],3.33%
same,inhibition at 10 µM,NCI-H522,94.1%
same,inhibition at 10 µM,SK-MEL-5,99.9%
same,inhibition,[5],96.1%
same,inhibition at 10 µM,HCC 2998 [6],67.6%
same,IC50,[7],9.92 µM
same,IC50,HCC 2998 [8],1.78 µM
same,IC50,[9],0.0033 µM
same,selectivity ratio at 3 h,hERG (KCNH2),513
same,growth at 10 µM,[10],63.4%
same,inhibition,[11],62.1%
same,IC50,OVCAR-4 [12],3.78 µM
same,Ratio IC50,[13],9
same,inhibition,[14],> 50%
same,inhibition,[15],2.75%
same,inhibition,[16],63.6%
same,inhibition,[17],23%
same,inhibition,[18],77.5%
same,IC50,MDA-MB-468 [19],1.04 µM
same,IC50,MOLT-4 [20],1.02 µM
same,inhibition at 10 µM,U-251,10.9%
same,IC50,[21],5.2 µM
same,inhibition,[22],24.8%
same,IC50,[23],13.2 µM
same,Ratio IC50,Homo sapiens [24],866
same,IC50,T47D,4.08 µM
same,inhibition,[25],66%
same,Ratio IC50,Homo sapiens [26],651
